These are literature values, as cited in patent US20120258202A1, “Compositions and Methods for an Appetite Suppressant and a Nutrient Absorption Blocker with Treatment To Raise Metabolic Rate” (priority 2011, published 2012).

The conditions of data set [1]: after ORLISTAT was stopped.
The conditions of data set [2]: laboratory animals.
For data set [3] the following is noted: people taking sibutramine; control 10.0%.

For `CNCCC(Oc1ccc(C(F)(F)F)cc1)c1ccccc1` (stereo not drawn) [fluoxetine, Fluoxetine], the “interruption of the treatment due to anxiety, insomnia, and nervousness (each)” value (in vivo) was 1-2%. Moreover, the anorexia (prescribing information, placebo 3%) is 10%. The somnolence (prescribing information, placebo 5%) is on record as 12%. For the same compound, the anxiety (prescribing information, placebo 6%) is 12%. Moreover, the nausea (prescribing information, placebo 9%) is given as 22%. Under “prescribing information, placebo 10%”, the insomnia is recorded as 19%.
For the compound `CCCCCCCCCCC[C@@H](C[C@@H]1OC(=O)[C@H]1CCCCCC)OC(=O)[C@H](CC(C)C)NC=O` [orlistat, tetrahydrolipstatin], the “weight regained after drug was stopped, of the weight lost” value in data set [1] is listed as “up to 35%”.
In the case of `CN[C@H]1CC[C@@H](c2ccc(Cl)c(Cl)c2)c2ccccc21` [sertraline, Sertraline], in data set [2], the body weight result is on record as “resulted in weight loss”.
As for `CC(C)CC(N(C)C)C1(c2ccc(Cl)cc2)CCC1` (stereo not drawn) [sibutramine, Sibutramine], the cardiovascular events in data set [3] is 11.4%.
